Data on 30 compounds can be found in paper PMC12302229, “Synergy of triazolyl substituents at C1 and C3 of galactose for high-affinity and selective galectin-4C inhibition” (RSC Chemical Biology, 2025).

SMILES strings stand for the structures. “And” between values parts separate entries of the source, which are not always exact repeats. Equal values may be shown once. Read-outs that look alike come from different tables or passages of the source.

Assay [1] addresses T1, galectin-1 (Homo sapiens, UniProt P09382).
T1 construct: made in house
As to conditions: cited from earlier work.

In assay [2] the target is T2, galectin-3 (Homo sapiens, UniProt P17931).
T2 construct: made in house
As to conditions: cited from earlier work.

Assay [3] addresses T3, galectin-4C (Homo sapiens, UniProt P56470).
T3 construct: made in house; host or cells: E. coli BL-21 (DE3)
T3 sequence (P56470 185-323): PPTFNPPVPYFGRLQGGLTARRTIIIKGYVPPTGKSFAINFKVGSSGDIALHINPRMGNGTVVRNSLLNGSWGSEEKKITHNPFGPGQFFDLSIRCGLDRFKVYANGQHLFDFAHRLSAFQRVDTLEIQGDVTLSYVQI
As to conditions: Chart 1, known C1-galactosyl inhibitors; read-out: affinity, Galectin-4C; cited from earlier work.

Assay [4] deals with T1, galectin-1. In words: competitive fluorescence polarization assay, galectin-1. As to conditions: for Kd: fluorescence polarization, Kd and SEM from 3–6 single point measurements, read-out: Dissociation constants, Galectin-1. The format is binding. The protocol: (§1) Affinities of 1c–1z for galectin-1, -3, -4C, -4N, -7, -8C, -8N, -9C, and -9N were measured using an established fluorescence polarization assay[57] with reported probes and conditions.[19] […]
(§2) Fluorescence polarization experiments
(§3) Human galectin-11 and galectin-32 were expressed and purified as earlier described. Fluorescence polarization experiments were performed on a PheraStarFS plate reader with software PHERAstar Mars version 2.10 R3 (BMG, Offenburg, Germany). Specific experimental conditions were a galectin-1 concentration of 0.5 µM together with the fluorescent probe (3,3’-dideoxy-3-[4-(fluorescein-5-yl-carbonylaminomethyl)-1H-1,2,3-triazol-1-yl]-3’-(3,5-di-methoxybenzamido)-1,1’-sulfanediyl-di-β-D-galactopyranoside 1 concentration of 20 nM and a galectin-3 concentration of 0.2 µM together with the fluorescent probe (3,3’-dideoxy-3-[4-(fluorescein-5-yl-carbonylaminomethyl)-1H-1,2,3- […]
(§4) triazol-1-yl]-3’-(3,5-di-methoxybenzamido)-1,1’-sulfanediyl-di-β-D-galactopyranoside) concentration of 20 nM, respectively. Inhibitors were dissolved in dimethylsulfoxide (analytical grade) to a concentration of 20 mM, diluted with PBS to 3–6 different concentrations, and tested in duplicate twice for galectin affinity using a competitive fluorescence polarization assay as earlier described.3 The highest inhibitor concentrations tested were 1 mM due to solubility limitations at higher concentration. Dissociation constants average and SEM were calculated from two to eight single point measurements showing between 20–80% inhibition. […]
A general note: Fluorescence polarisation rises when a labelled molecule tumbles more slowly, as on binding a larger partner.

The target of assay [5] is T2, galectin-3. In words: competitive fluorescence polarization assay, galectin-3. As to conditions: Kd and SEM from 3–6 single point measurements, > values estimated, no apparent binding at highest concentration, read-out: Dissociation constants, Galectin-3. As for the experimental part:
as §1, §2, §3, §4

The target of assay [6] is T3, galectin-4C. In words: competitive fluorescence polarization assay, galectin-4C. It counts as binding. As to conditions: for Kd: fluorescence polarization, x/y cells = only two data points revealed inhibition, both shown, > values estimated, no apparent binding at highest concentration, read-out: Dissociation constants, Galectin-4C. The protocol: Affinities of 1c–1z for galectin-1, -3, -4C, -4N, -7, -8C, -8N, -9C, and -9N were measured using an established fluorescence polarization assay[57] with reported probes and conditions.[19]
Recombinant human galectin-4 C-terminal carbohydrate recognition domain was expressed and purified as previously reported.[57,70] Briefly, BL-21 (DE3) E. coli cells containing galectin-4C (amino acid sequence 185–323) was expressed, lysed by sonication and purified by affinity chromatography on a lactosyl-Sepharose column. Galectin-4C protein was eluted using 50 mM β-lactose in PBS, pH 7.4. Galectin-4C was then further gel purified using a Superdex 200/60 column (GE Healthcare) previously equilibrated in PBS, pH 7.4. The peak fractions collected containing galectin-4C were pooled and concentrated to 6.5 mg mL^−1 using an AmiconUltra 3K molecular weight cut-off centrifugal concentrator (Millipore, Billerica, MA, USA) and used directly in crystallisation studies. […]
as §4

The mark [7] stands for this setting: Table 1 reference compounds, read-out: Dissociation constants, Galectin-1.
The mark [8] stands for this setting: Table 1 reference compounds, read-out: Dissociation constants, Galectin-3.
[9] abbreviates: Chart 1, known C1-galactosyl inhibitors, read-out: affinity, Galectin-1.
The mark [10] stands for this setting: Chart 1, known C1-galactosyl inhibitors, read-out: affinity, Galectin-3.

T1 sequence (P09382 whole entry): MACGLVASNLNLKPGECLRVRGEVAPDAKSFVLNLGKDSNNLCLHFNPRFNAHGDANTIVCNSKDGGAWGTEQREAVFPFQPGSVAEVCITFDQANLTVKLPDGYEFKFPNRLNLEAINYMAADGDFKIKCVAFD
T2 sequence (P17931 whole entry): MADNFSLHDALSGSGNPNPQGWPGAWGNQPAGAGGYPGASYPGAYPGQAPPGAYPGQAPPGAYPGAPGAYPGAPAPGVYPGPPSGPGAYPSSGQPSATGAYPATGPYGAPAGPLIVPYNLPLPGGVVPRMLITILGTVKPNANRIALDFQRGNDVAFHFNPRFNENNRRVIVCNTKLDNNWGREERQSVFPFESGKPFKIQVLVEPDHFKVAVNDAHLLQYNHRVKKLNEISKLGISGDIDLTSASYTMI

Consider `OC[C@H]1O[C@@H](c2cn(-c3ccccc3F)nn2)[C@H](O)[C@@H](O)[C@H]1O` [Compound 1a], for which the Kd on galectin-1 [1] (setting [7]) was 170 µM; at galectin-3 [2] (setting [8]), 880 µM; at galectin-4C [3], 780 µM.
With `OC[C@H]1O[C@@H](c2cn(-c3ccc(Cl)cc3)nn2)[C@H](O)[C@@H](O)[C@H]1O` [Compound 1b], the Kd at galectin-1 [1] (setting [7]) was 340 µM; on galectin-3 [2] (setting [8]), 1700 µM; at galectin-4C [3], 760 µM.
On to `OC[C@H]1O[C@@H](c2cn(-c3ccc(Br)cc3)nn2)[C@H](O)[C@@H](O)[C@H]1O` [Compound 1c, 4-(1-Deoxy-β-D-galactopyranosyl)-1-(4-bromophenyl)-1H-1,2,3-triazole], for which the Kd at galectin-1 [4] was 140 ± 25 µM; at galectin-3 [5] it was 1400 ± 340 µM; on galectin-4C [6] it was 1400 µM and 1500 µM. Besides, at galectin-1 [4] (ratio of Kd), the “selectivity for galectin-1 over galectin-3” value was “tenfold”.
With `OC[C@H]1O[C@@H](c2cn(-c3cccc(Br)c3)nn2)[C@H](O)[C@@H](O)[C@H]1O` [Compound 1d, 4-(1-Deoxy-β-D-galactopyranosyl)-1-(3-bromophenyl)-1H-1,2,3-triazole], the results for the Kd at galectin-1 [4], at galectin-3 [5] and on galectin-4C [6] were 1400 ± 95 µM, 1600 ± 30 µM and > 2000 µM, respectively.
In the case of `OC[C@H]1O[C@@H](c2cn(-c3ccc(I)cc3)nn2)[C@H](O)[C@@H](O)[C@H]1O` [Compound 1e], the Kd on galectin-1 [4] was 460 ± 50 µM; on galectin-3 [5], > 1000 µM.
Taken in the same sequence, the figures for `OC[C@H]1O[C@@H](c2cn(-c3cccc(I)c3)nn2)[C@H](O)[C@@H](O)[C@H]1O` [Compound 1f] were 1300 ± 220 µM and > 1000 µM.
`OC[C@H]1O[C@@H](c2cn(-c3ccc(C(F)(F)F)cc3)nn2)[C@H](O)[C@@H](O)[C@H]1O` [Compound 1g]: the Kd on galectin-1 [4] is 1300 ± 320 µM; on galectin-3 [5], 1200 ± 31 µM; on galectin-4C [6], 2300 µM and 2600 µM.
For `OC[C@H]1O[C@@H](c2cn(-c3cccc(C(F)(F)F)c3)nn2)[C@H](O)[C@@H](O)[C@H]1O` [Compound 1h], the Kd is 1500 ± 62 µM at galectin-1 [4]; 1300 ± 69 µM on galectin-3 [5]; 1500 µM and 2200 µM at galectin-4C [6].
Turning to `O=[N+]([O-])c1ccc(-n2cc([C@@H]3O[C@H](CO)[C@H](O)[C@H](O)[C@H]3O)nn2)cc1` [Compound 1i], the Kd is 400 ± 5 µM on galectin-1 [4], 1500 ± 67 µM on galectin-3 [5] and 910 ± 46 µM on galectin-4C [6].
Taken in the same sequence, the figures for `O=[N+]([O-])c1cccc(-n2cc([C@@H]3O[C@H](CO)[C@H](O)[C@H](O)[C@H]3O)nn2)c1` [Compound 1j] were 1800 ± 64 µM, 1000 ± 23 µM and > 2000 µM.
For the compound `OC[C@H]1O[C@@H](c2cn(-c3c(F)cccc3F)nn2)[C@H](O)[C@@H](O)[C@H]1O` [Compound 1k], the Kd was 1300 ± 190 µM at galectin-1 [4], 1200 ± 90 µM at galectin-3 [5] and > 2000 µM at galectin-4C [6].
On to `OC[C@H]1O[C@@H](c2cn(-c3ccc(Cl)cc3F)nn2)[C@H](O)[C@@H](O)[C@H]1O` [Compound 1l], for which the Kd at galectin-1 [4] was 300 ± 20 µM; on galectin-3 [5] it was 1200 ± 110 µM; on galectin-4C [6], > 2000 µM.
Taken in the same sequence, the figures for `OC[C@H]1O[C@@H](c2cn(-c3cc(Cl)ccc3F)nn2)[C@H](O)[C@@H](O)[C@H]1O` [Compound 1m] were 580 ± 12 µM, 870 ± 140 µM and 1300 ± 260 µM.
For `OC[C@H]1O[C@@H](c2cn(-c3cccc(Cl)c3F)nn2)[C@H](O)[C@@H](O)[C@H]1O` [Compound 1n], in that order: 1100 ± 48 µM, > 1000 µM and > 2000 µM.
For `OC[C@H]1O[C@@H](c2cn(-c3ccc(Br)cc3F)nn2)[C@H](O)[C@@H](O)[C@H]1O` [Compound 1o], the figures for the Kd on galectin-1 [4], at galectin-3 [5] and on galectin-4C [6] were 310 ± 29 µM, 770 ± 89 µM and > 2000 µM, respectively.
Regarding `OC[C@H]1O[C@@H](c2cn(-c3ccc(Cl)c(Cl)c3)nn2)[C@H](O)[C@@H](O)[C@H]1O` [Compound 1p], the Kd on galectin-1 [4] was 1300 ± 200 µM; on galectin-3 [5], 660 ± 53 µM; on galectin-4C [6], 2300 µM and 2500 µM.
On to `Cc1ccc(-n2cc([C@@H]3O[C@H](CO)[C@H](O)[C@H](O)[C@H]3O)nn2)cc1Cl` [Compound 1q], for which the figures for the Kd on galectin-1 [4], at galectin-3 [5] and at galectin-4C [6] were 1200 ± 240 µM, 1400 ± 38 µM and > 2000 µM, respectively.
Taken in the same sequence, the figures for `OC[C@H]1O[C@@H](c2cn(-c3ccc(Cl)cn3)nn2)[C@H](O)[C@@H](O)[C@H]1O` [Compound 1r] were 650 ± 3 µM, 490 ± 6 µM and > 2000 µM.
On to `OC[C@H]1O[C@@H](c2cn(-c3nccs3)nn2)[C@H](O)[C@@H](O)[C@H]1O` [Compound 1s], for which the Kd at galectin-1 [4] is 980 ± 7 µM; on galectin-3 [5], 910 ± 92 µM; at galectin-4C [6], > 2000 µM.
Taken in the same sequence, the figures for `OC[C@H]1O[C@@H](c2cn(-c3ccc(-c4ccccc4)cc3)nn2)[C@H](O)[C@@H](O)[C@H]1O` [Compound 1t] were 970 ± 25 µM, 2000 ± 270 µM and 880 ± 82 µM.
Taken in the same sequence, the figures for `OC[C@H]1O[C@@H](c2cn(-c3ccc4c(c3)CCC4)nn2)[C@H](O)[C@@H](O)[C@H]1O` [Compound 1u] were 2100 ± 73 µM, 1400 ± 160 µM and 2100 ± 490 µM.
Turning to `CS(=O)(=O)c1ccc(-n2cc([C@@H]3O[C@H](CO)[C@H](O)[C@H](O)[C@H]3O)nn2)cc1` [Compound 1v], the Kd at galectin-1 [4] was 780 ± 43 µM; at galectin-3 [5], 690 ± 70 µM; at galectin-4C [6] it was 2900 µM and 3500 µM.
On to `CS(=O)(=O)c1cccc(-n2cc([C@@H]3O[C@H](CO)[C@H](O)[C@H](O)[C@H]3O)nn2)c1` [Compound 1w], for which the Kd was 1400 ± 85 µM at galectin-1 [4], 1400 ± 70 µM at galectin-3 [5] and > 2000 µM at galectin-4C [6].
For `CC(=O)c1ccc(-n2cc([C@@H]3O[C@H](CO)[C@H](O)[C@H](O)[C@H]3O)nn2)cc1` [Compound 1x], in that order: 970 ± 65 µM, 1200 ± 83 µM and 1900 ± 550 µM.
In the case of `CC(=O)c1cccc(-n2cc([C@@H]3O[C@H](CO)[C@H](O)[C@H](O)[C@H]3O)nn2)c1` [Compound 1y], the Kd at galectin-1 [4] is 1300 ± 260 µM; on galectin-3 [5], 1000 ± 200 µM; on galectin-4C [6], 2000 µM and 2700 µM.
As to `OC[C@H]1O[C@@H](c2cn(-c3ccccn3)nn2)[C@H](O)[C@@H](O)[C@H]1O` [Compound 1z], the Kd at galectin-1 [4] was 150 ± 17 µM; on galectin-3 [5], 880 ± 100 µM; at galectin-4C [6], 2600 µM and 3100 µM.
On to `OC[C@H]1O[C@@H](c2cnc(-c3cccc4ccccc34)o2)[C@H](O)[C@@H](O)[C@H]1O` [Compound 2], for which the Kd on galectin-1 [1] (setting [9]) was 490 µM; at galectin-3 [2] (as printed in the running text, read-out: galectin-3 affinity), 90 µM; at galectin-4C [3], 550 µM.
For the compound `OC[C@H]1O[C@@H](Cn2cc(-c3ccc(F)cc3)nn2)[C@H](O)[C@@H](O)[C@H]1O` [Compound 3], the Kd is 170 µM on galectin-1 [1] (setting [9]), 710 µM on galectin-3 [2] (setting [10]) and 1200 µM on galectin-4C [3].
On to `OC[C@H]1O[C@@H](Cn2cc(-c3ccc(C(F)(F)F)cc3)nn2)[C@H](O)[C@@H](O)[C@H]1O` [Compound 4], for which the Kd at galectin-1 [1] (setting [9]) is 240 µM; at galectin-3 [2] (setting [10]), 830 µM; on galectin-4C [3] it was > 900 µM.
In the case of `OC[C@H]1O[C@@H](c2cnc(-c3cccc4ccccc34)o2)[C@H](O)[C@@H](n2cc(-c3ccccc3)nn2)[C@H]1O` [Compound 18], on galectin-4C [6], the Kd is 2.3 ± 0.4 µM. Further, on galectin-4C [6] (ratio of Kd), the “selectivity for galectin-4C over galectin-3” value is recorded as 4 fold.
